Source: patent US10874106B2, “Method of regulating plant growth” (ROTAM AGROCHEM INTERNATIONAL COMPANY LIMITED, priority 2012, dated 2020)

Assays:
Type in all cases: in vivo
oilseed rape plants = assay: Growth of young oilseed rape plants treated with clomazone versus untreated plants
Description: (§1) Sugarcane plants are treated by the application of a commercially available concentrate formulation of clomazone (Centium 360 CS®; a suspension concentrate of microencapsulated clomazone at a concentration of 360 g/l). The concentrate formulation is dispersed in water and diluted, in a manner conventional in the art, to give an aqueous spray composition. The spray composition is applied to the sugarcane plants in an amount to apply clomazone at a rate of 120 g/hectare.
Young oilseed rape plants are treated in an analogous manner to that described in Example 1.
The growth of the oilseed rape plants is monitored and compared with the growth of oilseed rape plants of the same age and grown under the same conditions, but without treatment with clomazone.

sugarcane plants = assay: Growth of sugarcane plants treated with clomazone versus untreated plants
Description: as §1
The growth of the sugarcane plants is monitored and compared with the growth of sugarcane plants grown under the same conditions, but without treatment with clomazone.

soybean plants = assay: Growth of young soybean plants treated with clomazone versus untreated plants
Description: as §1
Young soybean plants are treated in an analogous manner to that described in Example 1.
The growth of the soybean plants is monitored and compared with the growth of soybean plants of the same age and grown under the same conditions, but without treatment with clomazone.

rice plants = assay: Growth of young rice plants treated with clomazone versus untreated plants
Description: as §1
Young rice plants are treated in an analogous manner to that described in Example 1.
The growth of the rice plants is monitored and compared with the growth of rice plants of the same age and grown under the same conditions, but without treatment with clomazone.

potato plants = assay: Growth of young potato plants treated with clomazone versus untreated plants
Description: as §1
Young potato plants are treated in an analogous manner to that described in Example 1.
The growth of the potato plants is monitored and compared with the growth of potato plants of the same age and grown under the same conditions, but without treatment with clomazone.

[1] = treated analogously to Example 1
[2] = treated analogously to Example 1, versus untreated plants
[3] = clomazone 120 g/hectare spray, versus untreated plants

Structure (SMILES): CC1(C)CON(Cc2ccccc2Cl)C1=O [clomazone, 2-(2-chlorophenyl)methyl-4,4-dimethyl-3-isoxazolidinone]
- growth of the treated plants in comparison to the untreated plants (oilseed rape plants; [1]): significantly improved
- average height (oilseed rape plants; [2]): greater
- average leaf blade area (oilseed rape plants; [2]): larger
- shoot growth (oilseed rape plants; [2]): increased
- growth of the treated plants in comparison to the untreated plants (sugarcane plants; Centium 360 CS diluted in water, sprayed, clomazone 120 g/hectare): significantly improved
- average height (sugarcane plants; [3]): greater
- average leaf blade area (sugarcane plants; [3]): larger
- shoot growth (sugarcane plants; [3]): increased
- growth of the treated plants in comparison to the untreated plants (soybean plants; [1]): significantly improved
- average height (soybean plants; [2]): greater
- average leaf blade area (soybean plants; [2]): larger
- shoot growth (soybean plants; [2]): increased
- growth of the treated plants in comparison to the untreated plants (rice plants; [1]): significantly improved
- average height (rice plants; [2]): greater
- average leaf blade area (rice plants; [2]): larger
- shoot growth (rice plants; [2]): increased
- growth of the treated plants in comparison to the untreated plants (potato plants; [1]): significantly improved
- average height (potato plants; [2]): greater
- average leaf blade area (potato plants; [2]): larger
- shoot growth (potato plants; [2]): increased
